The record followed here is PubChem BioAssay (NCI).

What all share (assay): growth of human tumour cells (NCI), 48 h
Experiment [1] deals with 786-0 renal.
For experiment [2], the system named is A498 renal.
In experiment [3] the test system is A549 NSCLC.
Experiment [4] deals with ACHN renal.
Experiment [5] relates to HCT-116 colon.
The subject of experiment [6] is HL-60(TB) leukemia.
Experiment [7] deals with K-562 leukemia.
In experiment [8] the test system is LOX IMVI melanoma.
Experiment [9] relates to MDA-MB-231 breast.
In experiment [10] the test system is NCI-H226 lung.
Experiment [11] deals with NCI/ADR-RES ovarian.
Experiment [12] concerns OVCAR-8 ovarian.
For experiment [13], the system named is SF-295 CNS.
Experiment [14] deals with SK-MEL-2 melanoma.
The subject of experiment [15] is SK-MEL-28 melanoma.
In experiment [16] the test system is SK-MEL-5 melanoma.
Experiment [17] concerns SN12C renal.
In experiment [18] the test system is SNB-19 CNS.
Experiment [19] concerns UACC-62 melanoma.
For experiment [20], the system named is SK-OV-3 ovarian.

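Cultured in 96-well plates, cells were exposed to test compound for 48 hours across five concentrations. Definition used: TGI = concentration required for complete inhibition of growth.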 Bounds are passed on as bounds.

With `CCOC(=O)c1ccc(C(=O)n2ccnc2)[nH]1`, the TGI in experiment [1], in [2], in experiment [3], in experiment [4], in [5] and in experiment [6] was > 100 µM in each case. The TGI in experiment [7], in experiment [8], in [9], in [10], in experiment [11] and in experiment [12] was > 100 µM each time. Besides, the TGI in experiment [13], in experiment [14], in experiment [15], in experiment [16], in experiment [17] and in experiment [18] was > 100 µM in each case. Also, the TGI in [19] is > 100 µM.
Consider `C/C=C(/C)C(=O)O[C@H]1[C@H]2[C@@H]([C@@H](OC(C)=O)[C@H](C)C(=O)[C@@]34C[C@@H](C)C(=O)[C@]3(/C=C(\C)[C@H]1OC(C)=O)O4)C2(C)C`, for which the TGI amounted to 5.5 µM in [1]; 16 µM in experiment [2]; 7.05 µM in experiment [4]; 5.99 µM in experiment [5]; 2.13 µM in [6]; 8.43 µM in [7]. The TGI in [8] is 6.27 µM; in [9] it was 9.32 µM; in experiment [10] it was 6.56 µM; in experiment [11] it was 8.03 µM; in [12], 6.54 µM; in experiment [13], > 20 µM. Also, the TGI in experiment [14] was 11 µM; in experiment [16], 7.75 µM; in experiment [20], > 20 µM; in experiment [17], 5.33 µM; in experiment [18] it was 18.4 µM; in experiment [19] it was 6.99 µM.
Take `O=c1cc(NNCc2ccccc2)[nH]c(=O)[nH]1`: the TGI in experiment [1], in experiment [2], in [3], in experiment [4], in experiment [6] and in experiment [7] was > 100 µM throughout. Besides, the TGI in experiment [8], in [9], in experiment [10], in experiment [11], in [12] and in experiment [13] was > 100 µM in each case. Besides, the TGI in experiment [15], in experiment [16], in [17] and in [18] was > 100 µM throughout.
With `C=C1C[C@@H]2O[C@H]3[C@H]4[C@@H](C[C@@H](C)[C@@H](OC(C)=O)[C@H]42)[C@@H](C)CO[C@@]3(C)[C@H](OC(=O)CCCCCCC)C[C@H]1O`, the TGI stood at 28.9 µM in experiment [1]; 30.8 µM in experiment [2]; 34 µM in [3]; 35 µM in experiment [4]; 30.1 µM in experiment [5]; 44.1 µM in experiment [6]. Besides, the TGI in experiment [7] is > 100 µM; in experiment [8], 26.6 µM; in [9], 27 µM; in [10], 26.1 µM; in experiment [11], 30.7 µM; in experiment [12] it was 31.4 µM. The TGI was 36.4 µM in experiment [13]; 36.7 µM in experiment [14]; 32.7 µM in [15]; 28.8 µM in [16]; 31.1 µM in experiment [17]; 32.4 µM in experiment [18]. In experiment [19], this compound came in with a TGI of 31.4 µM.
Regarding `O=c1oc2ccccc2c(O)c1C(c1cnc2ccccc2c1)c1c(O)c2ccccc2oc1=O`, the TGI in experiment [1] is > 100 µM; in [2], > 100 µM; in experiment [5], > 100 µM; in experiment [6], 90 µM; in [7], > 100 µM; in experiment [8], > 100 µM. Besides, the TGI in experiment [9], in experiment [10], in [11], in [12], in experiment [14] and in experiment [15] was > 100 µM throughout. Besides, the TGI in experiment [16] is > 100 µM; in experiment [17], 76.6 µM; in experiment [18], > 100 µM; in experiment [19] it was 35.4 µM.
As for `Oc1[nH]c(=S)[nH]c1/C=C1/C(c2ccccc2)=Nc2ccccc21`, the TGI was 28.4 µM in experiment [1]; 25.3 µM in [2]; 78 µM in [4]; 27.5 µM in [5]; 26.1 µM in [6]; 33.7 µM in [7]. The TGI was 24.3 µM in experiment [8]; 33.5 µM in [9]; 35.8 µM in experiment [10]; 51.7 µM in [11]; 28.8 µM in experiment [12]; 26.5 µM in experiment [13]. Moreover, the TGI turned out to be 26 µM in [14]; 30.3 µM in [15]; 25.8 µM in [16]; 38.7 µM in [17]; 76.3 µM in experiment [18]; 26.4 µM in experiment [19].
For `CCOC(=O)C1(C/C=C/CCl)CCCC1=O` (centres undefined), the TGI in experiment [1] is 49.4 µM; in experiment [2], > 100 µM; in experiment [3], 49.4 µM; in experiment [4], 36.6 µM; in [5], 34.9 µM; in experiment [6], > 100 µM. For the same compound, the TGI in experiment [8] is 30.4 µM; in experiment [9] it was 42.5 µM; in [10], 36.2 µM; in experiment [11] it was 37.2 µM; in experiment [12], 38.2 µM; in [13], > 100 µM. The TGI in experiment [14] is 59 µM; in experiment [15], 50.6 µM; in experiment [16], 33.9 µM; in experiment [20], > 100 µM; in experiment [17], 59.1 µM; in experiment [18], 61.2 µM. This compound registered a TGI in experiment [19] of 30.2 µM.
Consider `CCC/C(Cl)=N/OC(=O)Nc1cc(C(F)(F)F)ccc1OC`, for which the TGI in [1] was 18.6 µM; in [2], 28.4 µM; in experiment [3], 34.6 µM; in experiment [4], 26.1 µM; in experiment [5], 22.8 µM; in experiment [6], > 100 µM. The TGI in [8] came out at 16.2 µM; in experiment [9], 27 µM; in [10], 30.8 µM; in experiment [11] it was 33.1 µM; in experiment [12], 29.8 µM; in experiment [13] it was 32.3 µM. Besides, the TGI came to 31.5 µM in experiment [14]; 28.3 µM in experiment [15]; 19.9 µM in experiment [16]; 21.8 µM in experiment [20]; 27.4 µM in experiment [17]; 31.5 µM in experiment [18]. Moreover, the TGI in [19] worked out at 28.8 µM.
